# Source: patent US10906977B2, “Enhancing the therapeutic activity of immune checkpoint inhibitor” (Maine Medical Center Research Institute, priority 2016, dated 2021)
# Tests used:
# fibroblasts [1] = experiment: Growth factor-induced fibroblast migration on denatured collagen; type: cell-based, human; conditions: FGF-2 20 ng/ml; FIG. 22B, 22E, 24D
# Protocol: (§1) Transwell membranes (8.0 um pore size) were coated with 5 μg/ml of native or denatured collagen for 12 hrs at […] as described previously (13). Migration buffer containing RPMI 1640, 1 mM MgCl2, 0.2 mM MnCl2 and 0.5% BSA in the presence or absence of 5× concentrated serum free SKOV-3 CM or 20 ng/ml FGF-2 was placed in the lower chambers. SKOV-3 or fibroblasts (1×105) were resuspended in migration buffer containing RPMI 1640, 1 mM MgCl2, 0.2 mM MnCl2 and 0.5% BSA in the presence or absence of antibodies directed to the HU177 epitope, or α10β1, (10 μg/ml) or 100 uM of the MEK inhibitor ([…]). Cells were added to the top chamber and allowed to migrate from 2 to 4 hrs. Cells remaining on the top of the membranes were removed and cells that had migrated to the underside of the membrane were quantified by direct cell counts of crystal violet stained cells or by measuring the optical density of eluted cell-associated crystal violet dye as previously described (15). Assays were completed at least 3×.
# [2] = system: chick chorioallantoic membrane (CAM); experiment: Chick CAM inflammation assay, FGF-2 induced, no cortisone acetate; type: in vivo
# Protocol: The chick chorioallantoic membrane (CAM) assays were carried out with some modifications (19). For all experiments CAMs of 10-day-old chick embryos obtained from Charles River (North Franklin, Conn.) were separated from the shell membrane. Filter discs either non-treated (inflammation assays) pretreated (angiogenesis assays) with cortisone acetate (3.0 mg/ml) containing RPMI only or FGF-2 (40 ng). CAMs were either non-treated or treated topically with Mab XL313, XL166 or a non-specific control antibody (10 μg/embryo every 24 h for three consecutive treatments). For peptide induction experiments, CAMs were stimulated with 100 ng/ml of the RGD peptides (P-1, P-2, P-C) in the presence or absence of the P38MAPK inhibitor, SB202190 (10 μM). At the end of the incubation period the embryos were sacrificed and the CAM tissues were analyzed. Angiogenesis was quantified by counting the number of angiogenic branching blood vessels within the area of the filter disc. The angiogenic index was determined by subtracting the mean number of blood vessel branch points from untreated CAMs from each experimental condition. Eight to twelve embryos were used per condition and experiments were repeated at least three times.
# CAMs examined for accumulation of granulation tissue were harvested, fixed in 4% PFA and paraffin embedded and sectioned (4 μm) and stained with Giemsa. CAM tissues analyzed via immunofluorescence were harvested, embedded with OCT, snap frozen and sectioned ([…]). Frozen sections were fixed in 50% methanol/50% acetone, air dried and blocked with 2.5% BSA for 1 h at 37° C. For expression of the XL313 and XL166 epitopes as well as monocyte/macrophages, FGF-2 stimulated CAM tissues were stained with Mabs XL313, XL166 (50 μg/ml) or KUL1 (1:250) and then incubated with Alexa-488 labeled secondary antibodies (1:2000 dilution). […] Using a similar strategy, sections of RGD peptide-treated CAM tissues were analyzed for phosphorylated-P38MAPK in angiogenic vessels by co-incubation of anti-phospho-P38MAPK (1:50) and anti-vWf (1:500) antibodies. […]
# XL313 epitope = experiment: Circulating Mab XL313 reactive epitope in chick embryo serum (solid-phase ELISA); type: in vivo; conditions: serum collected three days after FGF-2 stimulation; FIG. 5A
# From the text: FIG. 5A-FIG. 5D are bar graphs depicting the induction of angiogenesis and inflammation in vivo by soluble RGDKGE (SEQ ID NO: 1) but not a related RGDAPG (SEQ ID NO: 11) containing collagen epitope. FIG. 5A is a bar graph depicting serum from chick embryos in which the CAMs had been either not stimulated (NT) or stimulated with FGF-2 was collected. Relative levels of circulating Mab XL313 reactive epitope were quantified by solid-phase ELISA. Data represent mean Mab XL313 reactivity±S.E (N=12 to 13). FIG. 5B is a bar graph depicting quantification of dose dependent induction of angiogenesis by RGDKGE (SEQ ID NO: 1) containing collagen peptide P-2. […] FIG. 5C is a bar graph depicting quantification of CAM angiogenesis associated with RGD containing collagen peptides P-1 (KGDRGDAPG; SEQ ID NO: 2), P-2 (QGPRGDKGE; SEQ ID NO: 3) or control peptide P-C (QGPSGSPGE; SEQ ID NO: 4). […] FIG. 5D is a bar graph depicting the quantification of CAM inflammation associated with RGD containing collagen peptides P-1 (KGDRGDAPG; SEQ ID NO: 2), P-2 (QGPRGDKGE; SEQ ID NO: 3) or control peptide P-C (QGPSGSPGE (SEQ ID NO: 4)). […]
# Due to the differential expression and bio-distribution of the RGDKGE (SEQ ID NO: 1) epitope in angiogenic CAM tissues and its expression in macrophage-conditioned medium, it was determined whether a soluble circulating form of this RGDKGE (SEQ ID NO: 1) epitope could be generated. […]
# integrin α10β1 [3] = target: T1, integrin α10β1 (Homo sapiens, UniProt O75578+P05556); experiment: Solid-phase integrin binding to denatured collagen
# T1 construct: purchased R&D Systems
# Protocol: (§2) Plates were coated with 25 μg/ml of native or denatured (boiled 15 minutes) collagen. Collagen epitope peptide PGF and Cont-peptides were immobilized at 100 ug/ml. Integrins (0-2.0 μg/ml) were diluted in binding buffer containing 20 mM Tris, 15 mM NaCl, 1 mM MgCl2, 0.2 mM MnCl2, 0.5% BSA pH 7.4 as described (13). Integrins were allowed to bind for 1 hr and plates washed and incubated with anti-integrin antibodies (1:100 dilution) for 1 hr. Plates were washed and incubated with HRP-labeled secondary antibodies (1:5000 dilution). In a second assay, integrins (0.5 μg/ml) were coated in binding buffer and plates were washed, blocked as before and denatured (boiled 15 minutes) collagen was added (0-10.0 μg/ml). Denatured collagen was detected with anti-collagen antibody (1:1000). For integrin blocking ELISAs, wells were coated with denatured collagen and pre-treated (0.1 μg/ml) with anti-HU177 or control antibody. Following washing, wells were incubated with integrins (2.0 μg/ml) and binding was detected as described. Assays were carried out at least 3 times.
# integrin α10β1 [4] = target: T1, integrin α10β1; experiment: Solid-phase integrin binding to synthetic HU177 epitope (PGF peptide); conditions: peptide immobilized 100 ug/ml; FIG. 23F
# Protocol: as §2
# integrin α2β1 [5] = target: T2, integrin α2β1 (Homo sapiens, UniProt P05556+P17301); experiment: as above; conditions: peptide immobilized 100 ug/ml; FIG. 23F
# T2 construct: purchased R&D Systems
# Protocol: as §2
# integrin αvβ3 [6] = target: T3, integrin αvβ3 (Homo sapiens, UniProt P05106+P06756); experiment: as above; conditions: peptide immobilized 100 ug/ml; FIG. 23F
# T3 construct: purchased R&D Systems (Minneapolis, Minn.)
# Protocol: as §2
# TGF-β = experiment: Serum cytokines in B16F10 tumor bearing mice injected with cPG peptide (ELISA); type: in vivo, C57BL/6 mice; conditions: injected 3× per week; serum after 14 days; FIG. 26A
# Protocol: FIG. 26A-FIG. 26C is a series of bar charts showing that the injection of a peptide (cPG) containing the HU177 collagen epitope induces expression of the immune suppressive growth factor TGF-β in mouse circulation. C57BL/6 mice were injected subcutaneously with B16F10 melanoma cells (0.5×10^6) and tumors were allowed to form. Mice were next injected 3× per week with […] per mouse of cPG peptide. Serum was […] after 14 days. Serum was diluted in assay buffer and the relative levels of cytokines were examined by ELISA. FIG. 26A is a bar graph wherein data bars represent relative levels of TGF-β as determined by ELISA from control (DMSO) treated mouse and two different cPG peptide treated mice. FIG. 26B is a bar graph wherein data bars represent relative levels of IL-4 as determined by ELISA from control (DMSO) treated mouse and two different cPG peptide treated mice. FIG. 26C is a bar graph wherein data bars represent relative levels of IL-1β as determined by ELISA from control (DMSO) treated mouse and two different cPG peptide treated mice.
# C57BL/6 mice were injected subcutaneously with B16F10 melanoma cells (0.5×10^6) and tumors were allowed to form. […] FIG. 26A is a bar graph wherein data bars represent relative levels of TGF-β as determined by ELISA from control (DMSO) treated mouse and two different cPG peptide treated mice. […]
# PDL-1 = PDL-1 protein in cells attached to denatured collagen-IV (Western blot); type: cell-based; conditions: M21, CCL-49, HUVEC; vs native collagen-IV; FIG. 14
# Protocol: FIG. 14A and FIG. 14B are blots of integrin αvβ3 expressing melanoma cells (M21 and […]) and FIG. 14C is a blot depicting that endothelial cells (HUVEC) were allowed to attach to well coated with either a non-αvβ3 binding ligand (native collagen-IV) or an αvβ3 binding ligand (denatured collagen-IV). Whole cell lysates were prepared and the relative levels of PDL-1 or loading control β-actin were assessed by Western blot.
# Integrin αvβ3 expressing melanoma cells M21 (FIG. 14A) and CCL-49 (FIG. 14B) and endothelial cells (HUVEC) (FIG. 14C) were attached to wells coated with either a non-αvβ3 binding ligand (native collagen-IV) or an αvβ3 binding ligand (denatured collagen-IV). Whole cell lysates were prepared and the relative levels of PDL-1 or β-actin loading control were assessed.
# SKOV-3 cells [7] = experiment: Cell adhesion on native or denatured collagen; type: cell-based, human; conditions: FIG. 20A
# Protocol: (§3) The wells of non-tissue culture forty-eight well cluster plates were coated for 12 hrs at 4° C. with 5 μg/ml of native or denatured (boiled 15 minutes) collagen prepared as described above. SKOV-3 and fibroblasts were suspended in adhesion buffer containing RPMI 1640, 1 mM MgCl2, 0.2 mM MnCl2 and 0.5% BSA (13) and 1×10^5 cells were added in the presence or absence of anti-HU177 or control antibodies (100 μg/ml). Cells were allowed to attach for 25 minutes. Non-attached cells were removed by washing and attached cells stained with crystal violet as described (13). Wells were washed and the cell-associated crystal violet was eluted with 100 ul per well of 10% acetic acid. Cell adhesion was quantified by measuring the optical density of the eluted crystal violet as described (15). Assays were completed at least 3×.
# fibroblasts [8] = experiment: Cell adhesion on native or denatured collagen; type: cell-based, human; conditions: FIG. 20B
# Protocol: as §3
# SKOV-3 cells [9] = experiment: Transwell cell migration on native or denatured collagen; type: cell-based, human; conditions: FIG. 20C
# Protocol: as §1
# fibroblasts [10] = experiment: as above; type: cell-based, human; conditions: FIG. 20D
# Protocol: as §1
# integrin α1β1 = target: T4, integrin α1β1 (Homo sapiens, UniProt P05556+P56199); experiment: Solid-phase integrin binding to denatured collagen; conditions: FIG. 23A
# T4 construct: purchased R&D Systems (Minneapolis, Minn.)
# Protocol: as §2
# integrin α2β1 [11] = target: T2, integrin α2β1; experiment: Solid-phase integrin binding to denatured collagen; conditions: FIG. 23A
# Protocol: as §2
# integrin αvβ3 [12] = target: T3, integrin αvβ3; experiment: Solid-phase integrin binding to denatured collagen; conditions: FIG. 23A
# Protocol: as §2
# T1 sequence (O75578 23-1122 limits assumed): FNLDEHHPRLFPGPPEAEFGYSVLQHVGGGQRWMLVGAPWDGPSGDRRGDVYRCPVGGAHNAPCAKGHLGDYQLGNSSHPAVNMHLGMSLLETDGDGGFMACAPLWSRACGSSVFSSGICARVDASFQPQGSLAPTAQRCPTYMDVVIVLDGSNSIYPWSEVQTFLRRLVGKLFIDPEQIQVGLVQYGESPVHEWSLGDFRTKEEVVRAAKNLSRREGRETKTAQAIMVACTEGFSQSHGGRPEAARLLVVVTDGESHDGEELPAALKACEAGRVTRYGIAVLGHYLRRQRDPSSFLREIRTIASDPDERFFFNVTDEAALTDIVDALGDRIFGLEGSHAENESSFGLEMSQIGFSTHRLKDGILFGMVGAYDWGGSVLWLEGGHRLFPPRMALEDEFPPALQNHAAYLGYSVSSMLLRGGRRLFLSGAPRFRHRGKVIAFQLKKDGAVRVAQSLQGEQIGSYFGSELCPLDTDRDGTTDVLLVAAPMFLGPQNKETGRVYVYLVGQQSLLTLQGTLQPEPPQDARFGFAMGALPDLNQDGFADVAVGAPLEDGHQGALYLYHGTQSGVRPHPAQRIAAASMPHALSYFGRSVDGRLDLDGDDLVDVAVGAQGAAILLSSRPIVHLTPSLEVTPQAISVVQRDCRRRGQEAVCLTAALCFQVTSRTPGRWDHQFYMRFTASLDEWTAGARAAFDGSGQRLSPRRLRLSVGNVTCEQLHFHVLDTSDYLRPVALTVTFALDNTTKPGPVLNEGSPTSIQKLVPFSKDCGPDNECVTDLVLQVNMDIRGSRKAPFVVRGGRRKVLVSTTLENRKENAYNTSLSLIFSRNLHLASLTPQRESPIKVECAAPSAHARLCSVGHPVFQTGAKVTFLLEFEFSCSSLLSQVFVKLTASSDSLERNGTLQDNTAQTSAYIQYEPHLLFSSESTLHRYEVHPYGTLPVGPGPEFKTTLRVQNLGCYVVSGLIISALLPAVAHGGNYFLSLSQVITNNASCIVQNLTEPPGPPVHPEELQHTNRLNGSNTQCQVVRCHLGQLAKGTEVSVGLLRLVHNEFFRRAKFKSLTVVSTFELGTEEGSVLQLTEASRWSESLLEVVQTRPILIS
# T1 sequence (P05556 21-728 limits assumed): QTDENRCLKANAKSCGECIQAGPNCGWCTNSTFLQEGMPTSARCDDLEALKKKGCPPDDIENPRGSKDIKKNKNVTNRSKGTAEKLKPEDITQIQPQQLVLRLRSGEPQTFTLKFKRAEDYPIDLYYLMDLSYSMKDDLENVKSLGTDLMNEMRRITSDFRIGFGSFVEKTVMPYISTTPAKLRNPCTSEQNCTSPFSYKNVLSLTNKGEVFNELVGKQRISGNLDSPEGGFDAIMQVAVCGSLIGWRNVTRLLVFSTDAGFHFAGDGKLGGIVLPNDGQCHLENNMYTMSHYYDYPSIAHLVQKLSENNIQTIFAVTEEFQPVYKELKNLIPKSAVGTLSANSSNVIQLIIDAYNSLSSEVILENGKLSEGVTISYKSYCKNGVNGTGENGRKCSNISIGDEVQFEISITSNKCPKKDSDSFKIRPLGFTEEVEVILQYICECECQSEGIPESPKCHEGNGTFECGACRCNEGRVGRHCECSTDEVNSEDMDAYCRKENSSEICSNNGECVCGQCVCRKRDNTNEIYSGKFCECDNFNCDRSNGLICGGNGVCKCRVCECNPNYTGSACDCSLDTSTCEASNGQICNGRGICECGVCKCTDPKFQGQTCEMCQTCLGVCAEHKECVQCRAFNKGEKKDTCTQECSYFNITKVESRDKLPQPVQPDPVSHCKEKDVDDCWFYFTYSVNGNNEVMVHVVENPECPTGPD
# T2 sequence (P17301 30-1132 limits assumed): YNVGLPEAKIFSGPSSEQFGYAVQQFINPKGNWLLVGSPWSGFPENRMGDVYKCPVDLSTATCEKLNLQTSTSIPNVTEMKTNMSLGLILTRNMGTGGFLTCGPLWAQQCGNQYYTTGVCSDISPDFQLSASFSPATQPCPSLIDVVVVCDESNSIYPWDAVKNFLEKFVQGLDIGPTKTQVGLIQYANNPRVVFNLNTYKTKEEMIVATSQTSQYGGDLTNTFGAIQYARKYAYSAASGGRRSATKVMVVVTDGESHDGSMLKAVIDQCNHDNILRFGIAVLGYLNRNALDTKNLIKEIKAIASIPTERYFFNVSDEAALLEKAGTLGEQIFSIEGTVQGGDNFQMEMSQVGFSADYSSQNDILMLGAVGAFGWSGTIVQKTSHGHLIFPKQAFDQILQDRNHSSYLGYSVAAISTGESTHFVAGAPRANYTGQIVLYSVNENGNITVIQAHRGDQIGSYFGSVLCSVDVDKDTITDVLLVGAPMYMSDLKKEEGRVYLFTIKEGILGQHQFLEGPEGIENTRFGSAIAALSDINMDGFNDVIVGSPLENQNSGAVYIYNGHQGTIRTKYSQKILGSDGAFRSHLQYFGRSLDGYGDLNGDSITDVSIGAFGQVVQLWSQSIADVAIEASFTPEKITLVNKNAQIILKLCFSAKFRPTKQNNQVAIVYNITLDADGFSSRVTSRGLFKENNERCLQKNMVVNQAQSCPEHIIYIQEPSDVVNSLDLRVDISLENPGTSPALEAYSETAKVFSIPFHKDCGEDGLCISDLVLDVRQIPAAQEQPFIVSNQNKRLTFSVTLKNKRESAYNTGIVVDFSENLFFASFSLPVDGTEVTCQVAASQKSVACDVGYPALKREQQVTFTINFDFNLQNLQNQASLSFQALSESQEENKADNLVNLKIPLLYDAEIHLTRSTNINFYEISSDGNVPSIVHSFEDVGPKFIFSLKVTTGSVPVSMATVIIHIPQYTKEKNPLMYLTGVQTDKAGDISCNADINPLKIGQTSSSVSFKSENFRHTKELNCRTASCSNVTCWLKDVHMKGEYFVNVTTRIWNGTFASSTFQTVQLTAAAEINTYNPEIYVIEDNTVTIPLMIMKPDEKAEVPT
# T2 sequence (P05556 21-728 limits assumed): as the sequence (P05556 21-728 limits assumed) above
# T3 sequence (P06756 31-992 limits assumed): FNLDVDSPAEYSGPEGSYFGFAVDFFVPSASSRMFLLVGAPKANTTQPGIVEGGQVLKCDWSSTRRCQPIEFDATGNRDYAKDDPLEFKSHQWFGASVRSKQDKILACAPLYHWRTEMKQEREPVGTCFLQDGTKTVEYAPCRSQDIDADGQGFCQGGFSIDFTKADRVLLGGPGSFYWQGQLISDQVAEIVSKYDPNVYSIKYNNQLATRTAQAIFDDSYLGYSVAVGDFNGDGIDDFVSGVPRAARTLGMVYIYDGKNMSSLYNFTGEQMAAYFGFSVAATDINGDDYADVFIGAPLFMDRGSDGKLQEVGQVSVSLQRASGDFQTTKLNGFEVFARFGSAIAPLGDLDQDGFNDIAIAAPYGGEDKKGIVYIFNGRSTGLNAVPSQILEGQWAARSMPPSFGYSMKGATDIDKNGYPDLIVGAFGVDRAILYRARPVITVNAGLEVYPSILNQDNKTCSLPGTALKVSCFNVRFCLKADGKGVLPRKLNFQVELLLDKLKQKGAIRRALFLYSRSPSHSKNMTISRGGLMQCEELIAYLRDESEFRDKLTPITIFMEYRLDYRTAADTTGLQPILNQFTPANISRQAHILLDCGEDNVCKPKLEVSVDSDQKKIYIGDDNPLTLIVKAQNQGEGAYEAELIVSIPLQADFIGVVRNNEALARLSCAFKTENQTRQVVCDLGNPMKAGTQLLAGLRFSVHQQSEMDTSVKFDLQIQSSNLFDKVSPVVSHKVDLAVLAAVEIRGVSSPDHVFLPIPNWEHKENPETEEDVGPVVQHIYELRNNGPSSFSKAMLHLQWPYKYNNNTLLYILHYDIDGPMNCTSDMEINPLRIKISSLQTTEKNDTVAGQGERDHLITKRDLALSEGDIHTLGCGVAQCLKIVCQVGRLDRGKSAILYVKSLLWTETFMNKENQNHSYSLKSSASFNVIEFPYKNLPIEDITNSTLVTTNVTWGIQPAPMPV
# T3 sequence (P05106 27-718 limits assumed): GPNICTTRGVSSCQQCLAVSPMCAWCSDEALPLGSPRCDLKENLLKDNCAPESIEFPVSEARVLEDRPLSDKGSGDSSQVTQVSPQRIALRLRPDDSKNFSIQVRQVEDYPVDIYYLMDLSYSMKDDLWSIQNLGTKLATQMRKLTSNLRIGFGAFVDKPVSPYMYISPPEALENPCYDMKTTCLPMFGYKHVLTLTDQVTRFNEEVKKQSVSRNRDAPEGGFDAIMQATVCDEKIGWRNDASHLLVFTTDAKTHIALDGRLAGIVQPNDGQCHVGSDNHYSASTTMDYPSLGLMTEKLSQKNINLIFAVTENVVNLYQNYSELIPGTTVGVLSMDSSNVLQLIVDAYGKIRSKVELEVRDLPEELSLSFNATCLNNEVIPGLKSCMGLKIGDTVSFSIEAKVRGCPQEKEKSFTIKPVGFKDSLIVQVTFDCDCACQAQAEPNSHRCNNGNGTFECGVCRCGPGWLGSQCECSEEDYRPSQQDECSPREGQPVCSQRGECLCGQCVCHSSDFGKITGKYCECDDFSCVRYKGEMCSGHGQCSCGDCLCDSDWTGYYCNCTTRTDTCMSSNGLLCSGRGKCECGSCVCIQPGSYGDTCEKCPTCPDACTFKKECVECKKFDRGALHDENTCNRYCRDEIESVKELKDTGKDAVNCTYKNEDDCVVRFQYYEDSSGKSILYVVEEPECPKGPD
compound,measurement,setting,value
"COc1cccc(-c2cc(=O)c3ccccc3o2)c1N [MEK inhibitor (PD98059), PD98059]",FGF-2 stimulated fibroblast migration on denatured collagen,fibroblasts [1],blocked
"FGF-2: Fibroblast growth factor-2 from R&D Systems, used to stimulate CAMs",CAMs showing robust formation of thick granulation tissue,"[2]; FGF-2 stimulation in the absence of cortisone acetate, FIG. 3E",approximately 50%
same,"macrophage infiltration of the CAMs, enhancement as compared to control","[2]; FGF-2 stimulation without cortisone acetate, FIG. 3D",over 2 fold
same,increase in levels of circulating XL313 epitope,XL313 epitope,2 fold
CPGFPGFC [PGF peptide],competition of binding of α10β1 to denatured collagen,"integrin α10β1 [3]; soluble peptide, FIG. 23G",approximately 60%
same,"binding of α10β1 to the synthetic HU177 epitope, relative to α2β1",integrin α10β1 [4],4 fold
same,direct binding of α2β1 to the synthetic HU177 epitope,integrin α2β1 [5],bound
same,direct binding of αvβ3 to the synthetic HU177 epitope,integrin αvβ3 [6],failed to bind
same,expression of TGF-β in mouse serum,TGF-β,induce the expression
denatured collagen-IV: αvβ3 binding ECM ligand coated on wells,levels of PDL-1 protein in melanoma and endothelial cells following binding,PDL-1,enhanced levels of PDL-1 protein
denatured collagen: collagen type-I denatured by boiling the solution for 15 minutes,enhancement of SKOV-3 adhesion as compared to native collagen,SKOV-3 cells [7],38%
same,enhancement of fibroblast adhesion as compared to native collagen,fibroblasts [8],29%
same,enhancement of SKOV-3 migration as compared to native collagen,SKOV-3 cells [9],34%
same,enhancement of fibroblast migration as compared to native collagen,fibroblasts [10],19%
same,binding of denatured collagen and integrin α10β1,"integrin α10β1 [3]; FIG. 23A, 23B",dose dependently bound
same,binding of integrin α1β1 to denatured collagen,integrin α1β1,minimal interactions
same,binding of integrin α2β1 to denatured collagen,integrin α2β1 [11],dose dependently bound
same,binding of integrin αvβ3 to denatured collagen,integrin αvβ3 [12],dose dependently bound
